From ChEMBL document CHEMBL4673334, “In Vivo Biological Evaluation of a Synthetic Royleanone Derivative as a Promising Fast-Acting Trypanocidal Agent by Inducing Mitochondrial-Dependent Necrosis” (J Nat Prod, 2020)
pIC50: −log10 of the molar value. Calls of active or inactive are those of the source. The calls are words filed in the database; no cut-off is given here.

Legend:
[1] = molecular target: Superoxide dismutase [Cu-Zn] (Homo sapiens, UniProt P00441); test: Inhibition of human erythrocytes CuZn-SOD by UV-VIS spectrophotometric method; parameters: species or system Erythrocyte
Superoxide dismutase [Cu-Zn], sequence (P00441 whole entry): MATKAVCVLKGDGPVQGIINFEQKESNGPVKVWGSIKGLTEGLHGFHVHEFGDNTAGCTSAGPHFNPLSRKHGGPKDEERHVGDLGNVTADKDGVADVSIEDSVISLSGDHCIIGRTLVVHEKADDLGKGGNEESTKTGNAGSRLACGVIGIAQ

[2] = Inhibition of Trypanosoma cruzi MHOM/Pe/2011/Arequipa(DTU V) epimastigote form Fe-SOD by UV-VIS spectrophotometric method
[3] = system: Trypanosoma cruzi; test: Inhibition of nucleic acid level in Trypanosoma cruzi MHOM/Pe/2011/Arequipa(DTU V) epimastigote form at IC25 concentration after 72 hrs by Rho (FITC-A) staining based flow cytometric analysis; assay type: functional
[4] = system: Trypanosoma cruzi; test: Antitrypanosomal activity against Trypanosoma cruzi MHOM/Pe/2011/Arequipa(DTU V) epimastigote form assessed as disruption of acetate level at IC25 concentration incubated for 72 hrs by NMR spectrometric analysis; assay type: functional, organism-based
[5] = system: Trypanosoma cruzi; test: Antitrypanosomal activity against Trypanosoma cruzi MHOM/Pe/2011/Arequipa(DTU V) epimastigote form assessed as disruption of pyruvate level at IC25 concentration incubated for 72 hrs by NMR spectrometric analysis; assay type: functional, organism-based
[6] = system: Trypanosoma cruzi; test: Antitrypanosomal activity against Trypanosoma cruzi MHOM/Pe/2011/Arequipa(DTU V) epimastigote form assessed as disruption of glycerol level at IC25 concentration incubated for 72 hrs by NMR spectrometric analysis; assay type: functional, organism-based
[7] = Toxicity in BALB/c mouse infected with Trypanosomal Trypanosoma cruzi MHOM/Pe/2011/Arequipa(DTU V) assessed as reduction in survival at 20 mg/kg, po administered for 5 days starting at 9 days post infection and measured up to 145 days post infection; assay type: organism-based; details: in vivo, 120 h, time 5 day
[8] = Toxicity in BALB/c mouse infected with Trypanosomal Trypanosoma cruzi MHOM/Pe/2011/Arequipa(DTU V) assessed as effect on total bilirubin level at 20 mg/kg, po administered for 5 days starting at 100 days post infection and measured after 2 days post treatment; assay type: organism-based; details: in vivo, 120 h, time 5 day
[9] = Toxicity in BALB/c mouse infected with Trypanosomal Trypanosoma cruzi MHOM/Pe/2011/Arequipa(DTU V) assessed as effect on ALT/GPT level at 20 mg/kg, po administered for 5 days starting at 100 days post infection and measured after 2 days post treatment; assay type: organism-based; details: in vivo, 120 h, time 5 day
[10] = Toxicity in BALB/c mouse infected with Trypanosomal Trypanosoma cruzi MHOM/Pe/2011/Arequipa(DTU V) assessed as effect on LDH level at 20 mg/kg, po administered for 5 days starting at 100 days post infection and measured after 2 days post treatment; assay type: organism-based; details: in vivo, 120 h, time 5 day
[11] = Toxicity in BALB/c mouse infected with Trypanosomal Trypanosoma cruzi MHOM/Pe/2011/Arequipa(DTU V) assessed as effect on CK-MB level at 20 mg/kg, po administered for 5 days starting at 100 days post infection and measured after 2 days post treatment; assay type: organism-based; details: in vivo, 120 h, time 5 day
[12] = Toxicity in BALB/c mouse infected with Trypanosomal Trypanosoma cruzi MHOM/Pe/2011/Arequipa(DTU V) assessed as effect on uric acid level at 20 mg/kg, po administered for 5 days starting at 100 days post infection and measured after 2 days post treatment; assay type: organism-based; details: in vivo, 120 h, time 5 day
[13] = Toxicity in BALB/c mouse infected with Trypanosomal Trypanosoma cruzi MHOM/Pe/2011/Arequipa(DTU V) assessed as effect on ALP level at 20 mg/kg, po administered for 5 days starting at 9 days post infection and measured after 2 days post treatment; assay type: organism-based; details: in vivo, 120 h, time 5 day
[14] = Toxicity in BALB/c mouse infected with Trypanosomal Trypanosoma cruzi MHOM/Pe/2011/Arequipa(DTU V) assessed as effect on ALT/GPT level at 20 mg/kg, po administered for 5 days starting at 9 days post infection and measured after 2 days post treatment; assay type: organism-based; details: in vivo, 120 h, time 5 day
[15] = Toxicity in BALB/c mouse infected with Trypanosomal Trypanosoma cruzi MHOM/Pe/2011/Arequipa(DTU V) assessed as effect on AST/GOT level at 20 mg/kg, po administered for 5 days starting at 9 days post infection and measured after 2 days post treatment; assay type: organism-based; details: in vivo, 120 h, time 5 day
[16] = Toxicity in BALB/c mouse infected with Trypanosomal Trypanosoma cruzi MHOM/Pe/2011/Arequipa(DTU V) assessed as effect on LDH level at 20 mg/kg, po administered for 5 days starting at 9 days post infection and measured after 2 days post treatment; assay type: organism-based; details: in vivo, 120 h, time 5 day
[17] = Toxicity in BALB/c mouse infected with Trypanosomal Trypanosoma cruzi MHOM/Pe/2011/Arequipa(DTU V) assessed as effect on urea level at 20 mg/kg, po administered for 5 days starting at 9 days post infection and measured after 2 days post treatment; assay type: organism-based; details: in vivo, 120 h, time 5 day
[18] = system: Trypanosoma cruzi; test: Antitrypanosomal activity against Trypanosoma cruzi MHOM/Pe/2011/Arequipa(DTU V) amastigote form infected in BALB/c mouse assessed as parasite free organ tissue ratio at 20 mg/kg, po administered for 5 days starting at 100 days post infection and measured up to 145 days post infection by PCR analysis relative to control; assay type: functional; details: time 5 day
[19] = system: Trypanosoma cruzi; test: Antitrypanosomal activity against Trypanosoma cruzi MHOM/Pe/2011/Arequipa(DTU V) amastigote form infected in BALB/c mouse assessed as reactivation parasitaemia at 20 mg/kg, po administered for 5 days starting at 100 days post infection and measured up to 145 days post infection relative to control; assay type: functional
[20] = Selectivity index, ratio of IC50 for cytotoxicity against African green monkey Vero cells to IC50 for antitrypanosomal activity against Trypanosoma cruzi TINF/CH/1956/Tulahuen (DTU VI) amastigote form infected in Vero cells; assay type: toxicity, cell-based; details: read-out: Ratio IC50
[21] = Selectivity index, ratio of IC50 for cytotoxicity against African green monkey Vero cells to IC50 for antitrypanosomal activity against Trypanosoma cruzi TINF/CH/1956/Tulahuen (DTU VI) epimastigote form; assay type: toxicity, cell-based; details: read-out: Ratio IC50
[22] = Selectivity index, ratio of IC50 for cytotoxicity against African green monkey Vero cells to IC50 for antitrypanosomal activity against Trypanosoma cruzi IRHOD/CO/2008/SN3 (DTU I) blood stream trypomastigote form; assay type: toxicity, cell-based; details: read-out: Ratio IC50
[23] = Selectivity index, ratio of IC50 for cytotoxicity against African green monkey Vero cells to IC50 for antitrypanosomal activity against Trypanosoma cruzi MHOM/Pe/2011/Arequipa(DTU V) blood stream trypomastigote form; assay type: toxicity, cell-based; details: read-out: Ratio IC50
[24] = system: Vero; test: Cytotoxicity against African green monkey Vero cells assessed as reduction in cell viability after 48 hrs by resazurin dye based assay; details: Chlorocebus sabaeus
[25] = system: Trypanosoma cruzi; test: Antitrypanosomal activity against Trypanosoma cruzi TINF/CH/1956/Tulahuen (DTU VI) blood stream trypomastigote form assessed as parasite growth inhibition incubated for 24 hrs by resazurin dye based assay; assay type: functional, organism-based
[26] = system: Trypanosoma cruzi; test: Antitrypanosomal activity against Trypanosoma cruzi TINF/CH/1956/Tulahuen (DTU VI) epimastigote form assessed as parasite growth inhibition incubated for 48 hrs by resazurin dye based assay; assay type: functional, organism-based
[27] = system: Trypanosoma cruzi; test: Antitrypanosomal activity against Trypanosoma cruzi IRHOD/CO/2008/SN3 (DTU I) epimastigote form assessed as parasite growth inhibition incubated for 48 hrs by resazurin dye based assay; assay type: functional, organism-based
[28] = system: Trypanosoma cruzi; test: Antitrypanosomal activity against Trypanosoma cruzi IRHOD/CO/2008/SN3 (DTU I) amastigote form infected in Vero cells assessed as parasite growth inhibition incubated for 72 hrs by Giemsa-staining based assay; assay type: functional, organism-based
[29] = system: Trypanosoma cruzi; test: Antitrypanosomal activity against Trypanosoma cruzi MHOM/Pe/2011/Arequipa(DTU V) blood stream trypomastigote form assessed as parasite growth inhibition incubated for 24 hrs by resazurin dye based assay; assay type: functional, organism-based
[30] = system: Trypanosoma cruzi; test: Antitrypanosomal activity against Trypanosoma cruzi MHOM/Pe/2011/Arequipa(DTU V) amastigote form infected in Vero cells assessed as parasite growth inhibition incubated for 72 hrs by Giemsa-staining based assay; assay type: functional, organism-based

SMILES | pIC50 [1] | pIC50 [2] | inhibition [3] [%] | Activity [4] | Activity [5] | Activity [6] | Activity [7] | Activity [8] | Activity [9] | Activity [10] | Activity [11] | Activity [12] | Activity [13] | Activity [14] | Activity [15] | Activity [16] | Activity [17] | Activity [18] [%] | selectivity ratio [20] | selectivity ratio [21] | further results
CC(C)c1cc(C=O)c([C@@]2(C)CCCC(C)(C)C2=O)cc1O | < 4.00 | < 4.00 | 36.4 | inactive | inactive | Active | Non-Toxic | Non-Toxic | Non-Toxic | Non-Toxic | Non-Toxic | Non-Toxic | Non-Toxic | Non-Toxic | Non-Toxic | Non-Toxic | Non-Toxic | 42.9 | > 40 | > 15 | Activity ([19]; time 5.0 day): Active; selectivity ratio [22]: > 40; selectivity ratio [23]: > 40; pIC50 [24]: 3.20; pIC50 [25]: 5.03; pIC50 [26]: 4.87; pIC50 [27]: 4.90; pIC50 [28]: 5.14; pIC50 [29]: 5.00; pIC50 [30]: 5.04
COC(=O)[C@]1(C)CCC[C@]2(C)C3=C(C=C[C@@H]12)C(=O)C(C(C)C)=CC3=O | < 4.00 | 5.19 | 50.4 | inactive | inactive | Active | Non-Toxic | Non-Toxic | Non-Toxic | Non-Toxic | Non-Toxic | Non-Toxic | Non-Toxic | Non-Toxic | Non-Toxic | Non-Toxic | Non-Toxic | 57.1 | > 40 | > 15 | Activity ([19]; time 5 day): 52%; selectivity ratio [22]: > 40; selectivity ratio [23]: > 40; pIC50 [24]: 4.14; pIC50 [25]: 5.80; pIC50 [26]: 5.68; pIC50 [27]: 5.80; pIC50 [28]: 5.27; pIC50 [29]: 6.15; pIC50 [30]: 5.32
